Measurements taken from paper PMC11249646, “Small-Molecule Disruptors of the Interaction between Calcium- and Integrin-Binding Protein 1 and Integrin αIIbβ3 as Novel Antiplatelet Agents” (ACS Pharmacology & Translational Science, 2024).
Like-named read-outs stand apart in the source and are kept apart here.

What was measured:
Assay type in all cases: binding
[1] = molecular target: T1, GST-CIB1 : F-scrambled peptide (Homo sapiens, UniProt Q99828); test: FP scrambled-peptide counter screen, 1536-well format; conditions: for COUNTERSCREEN Confirm?: YES/NO call
T1 construct: made in house; host or cells: BL-21 plus RIL cells (E. coli)
T1 sequence (Q99828 1-191): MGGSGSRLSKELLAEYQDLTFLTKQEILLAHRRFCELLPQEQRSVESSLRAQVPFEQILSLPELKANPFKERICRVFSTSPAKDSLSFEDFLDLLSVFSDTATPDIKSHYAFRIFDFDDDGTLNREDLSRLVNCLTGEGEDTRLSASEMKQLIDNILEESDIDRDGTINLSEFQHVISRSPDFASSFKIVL

[2] = molecular target: T2, CIB1 and αIIb interaction (GST-CIB1 : F-αIIb peptide) (Homo sapiens, UniProt Q99828); test: FP assay, 384-well format (screen); parameters: 384-well SCREEN Efficacy (%): concentration or dose not given beside the values; conditions: for IC50: read-out: 384-well SCREEN IC50
T2 construct: made in house; host or cells: BL-21 plus RIL cells (E. coli)
T2 sequence (Q99828 1-191): T1 sequence (Q99828 1-191)

[3] = molecular target: T3, CIB1 and αIIb interaction (CIB1-GST : F-αIIb peptide) (Homo sapiens, UniProt Q99828); test: FP assay, 1536-well qHTS format (primary and confirmatory screen); conditions: for CONFIRMATORY SCREEN Confirm?: YES/NO call
T3 construct: made in house; host or cells: BL-21 plus RIL cells (E. coli)
T3 sequence (Q99828 1-191): T1 sequence (Q99828 1-191)

[4] = molecular target: T1, GST-CIB1 : F-scrambled peptide; test: FP scrambled-peptide counter screen, 384-well format; conditions: for 384-well COUNTERSCREEN Confirm?: *: Curve in opposite direction; for IC50: read-out: 384-well COUNTERSCREEN IC50
[5] = scrambled-peptide counterscreen
[6] = scrambled-peptide counterscreen, read-out: COUNTERSCREEN IC50
[7] = confirmatory screen, qHTS curve class, negative sign = inhibitory curve
[8] = confirmatory screen, negative = inhibition
[9] = confirmatory screen, read-out: CONFIRMATORY SCREEN IC50
[10] = qHTS FP screen hits, Table S2, negative = inhibition
[11] = qHTS FP screen hits, Table S2, read-out: IC50
[12] = scrambled-peptide counterscreen, qHTS curve class
[13] = qHTS FP screen hits, Table S2, one class per curve where COUNT > 1, negative sign = inhibitory curve
[14] = qHTS primary screen hits, Table S2, read-out: IC50

Structure (SMILES)	COUNTERSCREEN Efficacy (%) [1, 5] [%]	COUNTERSCREEN Confirm? [1, 5]	384-well SCREEN Efficacy (%) ([2]; F-αIIb peptide)	384-well SCREEN Confirm? ([2]; F-αIIb peptide, YES/NO)	IC50 ([2]; F-αIIb peptide) [µM]	CONFIRMATORY SCREEN Confirm? ([3]; confirmatory screen)	CONFIRMATORY SCREEN Curve Class [3, 7]	CONFIRMATORY SCREEN Efficacy (%) [3, 8] [%]	IC50 [3, 9] [µM]	384-well COUNTERSCREEN Efficacy (%) ([4]; F-scrambled peptide)	IC50 ([4]; F-scrambled peptide) [µM]	Efficacy (%) [3, 10] [%]	COUNTERSCREEN Curve Class [1, 12]	further results
CCc1oc2ccccc2c1C(=O)c1cc(Br)c(O)c(Br)c1 [NCGC00013895-08]	52	YES	39	YES	25.1	YES	-1.2	-66	22.4	60	12.6			IC50 [1, 6]: 20 µM; 384-well COUNTERSCREEN Confirm? ([4]; F-scrambled peptide): YES
Cl.O=C1c2c(O)ccc(O)c2C(=O)c2c(NCCNCCO)ccc(NCCNCCO)c21 [NCGC00015693-04]			80	YES	4.1					75	5.8	-85		Efficacy (%) (counterscreen) ([1]; counterscreen): -125%; Curve Class (counterscreen) ([1]; counterscreen, qHTS curve class, negative sign = inhibitory curve): -1.1; IC50 ([1]; counterscreen, read-out: IC50 [μM] (counterscreen)): 20 µM; Efficacy (%) (confirmatory screen) ([3]; confirmatory screen): -112%; Confirm? (confirmatory screen) ([3]; confirmatory screen, YES/NO): YES; Curve Class (confirmatory screen) [3, 7]: -1.1; IC50 ([3]; confirmatory screen, read-out: IC50 [μM] (confirmatory screen)): 20 µM; IC50 [3, 11]: 25.2 µM
CC[C@@H](CO)NC(=O)[C@@H]1C=C2c3cccc4[nH]cc(c34)C[C@H]2N(C)C1.O=C(O)/C=C\C(=O)O [NCGC00017258-05]	-16	YES	80	YES	60	YES	-2.4	-34		80		-131	4	Curve Class [3, 13]: -2.1
Cc1ccc(C)n1-c1cccc(C(=O)O)c1.O=C(O)C(F)(F)F [NCGC00060597-02]	-11	YES	30	YES	17.7	YES	-1.2	-42	8.9	24	> 120		4	384-well COUNTERSCREEN Confirm? ([4]; F-scrambled peptide): YES
C=CCNc1oc(-c2cccc3ccccc23)nc1C#N.O=C(O)C(F)(F)F [NCGC00068824-04]	-19	YES	71	YES	4	YES	-1.2	-78	15.8	51	4.5	-38	4	Curve Class [3, 13]: -1.2; IC50 [3, 11]: 17.8 µM
Oc1c(Cl)cc(Cl)c(Cl)c1Cc1c(O)c(Cl)cc(Cl)c1Cl [NCGC00091195-08]	106	YES	55		> 120	YES	-1.4	-38	7.1	205	31.6			IC50 [1, 6]: 89.1 µM; Efficacy (%) ([3]; qHTS primary screen hits, Table S2, negative = inhibition): -59%; Curve Class ([3]; qHTS primary screen hits, Table S2, negative sign = inhibitory curve, several classes where COUNT > 1): -2.2; IC50 [3, 14]: 50.1 µM
O=[N+]([O-])c1ccc2c(c1)S(=O)(=O)C=C2 [NCGC00167848-02]					120						> 120			384-well SCREEN Confirm? [2]: YES; 384-well SCREEN Efficacy (%) [2]: 50%; Curve Class [3]: -1.4; Efficacy (%) [3]: -37%; IC50 [3, 14]: 0.7 µM; 384-well COUNTERSCREEN Efficacy (%) [4]: 45%
